Tests used:
[1] = biological target: T1, Histone-lysine N-methyltransferase NSD3 (Homo sapiens, UniProt Q9BZ95); assay: Inhibition of recombinant NSD3 (1021 to 1322 residues) (unknown origin) expressed in Escherichia coli Rossetta (DE3)
T1 sequence (Q9BZ95 whole entry): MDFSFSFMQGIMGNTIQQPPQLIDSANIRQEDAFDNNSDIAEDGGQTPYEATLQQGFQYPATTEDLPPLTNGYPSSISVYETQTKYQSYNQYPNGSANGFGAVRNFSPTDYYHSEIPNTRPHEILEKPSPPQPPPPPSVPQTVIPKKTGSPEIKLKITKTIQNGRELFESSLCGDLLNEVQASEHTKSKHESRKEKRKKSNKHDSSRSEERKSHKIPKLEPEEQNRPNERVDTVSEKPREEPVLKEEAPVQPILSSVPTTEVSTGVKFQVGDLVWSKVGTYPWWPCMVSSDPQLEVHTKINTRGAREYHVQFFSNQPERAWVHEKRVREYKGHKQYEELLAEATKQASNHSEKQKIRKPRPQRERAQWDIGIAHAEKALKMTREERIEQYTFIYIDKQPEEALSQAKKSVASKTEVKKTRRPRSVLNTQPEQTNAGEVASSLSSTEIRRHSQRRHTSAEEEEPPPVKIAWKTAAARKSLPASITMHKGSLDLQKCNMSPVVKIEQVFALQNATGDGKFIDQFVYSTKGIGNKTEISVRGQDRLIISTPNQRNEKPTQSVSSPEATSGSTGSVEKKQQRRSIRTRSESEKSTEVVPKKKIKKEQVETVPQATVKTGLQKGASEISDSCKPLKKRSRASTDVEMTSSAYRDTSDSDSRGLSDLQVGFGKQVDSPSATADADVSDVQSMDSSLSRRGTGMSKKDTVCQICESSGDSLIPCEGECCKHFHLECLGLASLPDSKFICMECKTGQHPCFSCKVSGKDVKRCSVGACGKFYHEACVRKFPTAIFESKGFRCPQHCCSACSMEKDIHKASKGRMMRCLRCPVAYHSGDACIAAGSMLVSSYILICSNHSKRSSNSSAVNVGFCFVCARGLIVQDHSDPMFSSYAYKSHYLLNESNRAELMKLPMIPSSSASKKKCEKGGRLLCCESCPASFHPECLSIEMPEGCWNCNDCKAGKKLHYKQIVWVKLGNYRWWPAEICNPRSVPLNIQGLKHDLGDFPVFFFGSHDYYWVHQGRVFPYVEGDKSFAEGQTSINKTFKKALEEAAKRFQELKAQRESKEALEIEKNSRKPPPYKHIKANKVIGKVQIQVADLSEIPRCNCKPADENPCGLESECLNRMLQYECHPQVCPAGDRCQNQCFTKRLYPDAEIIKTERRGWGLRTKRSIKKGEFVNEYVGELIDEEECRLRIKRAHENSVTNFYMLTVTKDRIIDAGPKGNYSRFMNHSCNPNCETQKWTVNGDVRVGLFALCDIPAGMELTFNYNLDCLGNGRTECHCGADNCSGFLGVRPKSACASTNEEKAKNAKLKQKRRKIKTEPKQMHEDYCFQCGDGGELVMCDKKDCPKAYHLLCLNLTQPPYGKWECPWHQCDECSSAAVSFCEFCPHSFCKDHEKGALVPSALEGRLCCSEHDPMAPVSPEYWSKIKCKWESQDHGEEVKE

[2] = Inhibition of cell proliferation of rat RN 22 cells incubated for 6 days by Real-time Glow MT assay; assay type: functional, cell-based; conditions: RN 22, 144 h
[3] = biological target: T1, Histone-lysine N-methyltransferase NSD3; assay: Inhibition of recombinant NSD3 (1021 to 1322 residues) (unknown origin) expressed in Escherichia coli Rossetta (DE3) using H3K36me1 as substrate incubated for 20 mins in presence of SAM by HTRF assay
[4] = biological target: T2, Histone-lysine N-methyltransferase NSD2 (Homo sapiens, UniProt O96028); assay: Inhibition of recombinant NSD2 (942 to 1240 residues) (unknown origin) expressed in Escherichia coli Rossetta (DE3) using H3K36me1 as substrate incubated for 20 mins in presence of SAM by HTRF assay
T2 sequence (O96028 whole entry): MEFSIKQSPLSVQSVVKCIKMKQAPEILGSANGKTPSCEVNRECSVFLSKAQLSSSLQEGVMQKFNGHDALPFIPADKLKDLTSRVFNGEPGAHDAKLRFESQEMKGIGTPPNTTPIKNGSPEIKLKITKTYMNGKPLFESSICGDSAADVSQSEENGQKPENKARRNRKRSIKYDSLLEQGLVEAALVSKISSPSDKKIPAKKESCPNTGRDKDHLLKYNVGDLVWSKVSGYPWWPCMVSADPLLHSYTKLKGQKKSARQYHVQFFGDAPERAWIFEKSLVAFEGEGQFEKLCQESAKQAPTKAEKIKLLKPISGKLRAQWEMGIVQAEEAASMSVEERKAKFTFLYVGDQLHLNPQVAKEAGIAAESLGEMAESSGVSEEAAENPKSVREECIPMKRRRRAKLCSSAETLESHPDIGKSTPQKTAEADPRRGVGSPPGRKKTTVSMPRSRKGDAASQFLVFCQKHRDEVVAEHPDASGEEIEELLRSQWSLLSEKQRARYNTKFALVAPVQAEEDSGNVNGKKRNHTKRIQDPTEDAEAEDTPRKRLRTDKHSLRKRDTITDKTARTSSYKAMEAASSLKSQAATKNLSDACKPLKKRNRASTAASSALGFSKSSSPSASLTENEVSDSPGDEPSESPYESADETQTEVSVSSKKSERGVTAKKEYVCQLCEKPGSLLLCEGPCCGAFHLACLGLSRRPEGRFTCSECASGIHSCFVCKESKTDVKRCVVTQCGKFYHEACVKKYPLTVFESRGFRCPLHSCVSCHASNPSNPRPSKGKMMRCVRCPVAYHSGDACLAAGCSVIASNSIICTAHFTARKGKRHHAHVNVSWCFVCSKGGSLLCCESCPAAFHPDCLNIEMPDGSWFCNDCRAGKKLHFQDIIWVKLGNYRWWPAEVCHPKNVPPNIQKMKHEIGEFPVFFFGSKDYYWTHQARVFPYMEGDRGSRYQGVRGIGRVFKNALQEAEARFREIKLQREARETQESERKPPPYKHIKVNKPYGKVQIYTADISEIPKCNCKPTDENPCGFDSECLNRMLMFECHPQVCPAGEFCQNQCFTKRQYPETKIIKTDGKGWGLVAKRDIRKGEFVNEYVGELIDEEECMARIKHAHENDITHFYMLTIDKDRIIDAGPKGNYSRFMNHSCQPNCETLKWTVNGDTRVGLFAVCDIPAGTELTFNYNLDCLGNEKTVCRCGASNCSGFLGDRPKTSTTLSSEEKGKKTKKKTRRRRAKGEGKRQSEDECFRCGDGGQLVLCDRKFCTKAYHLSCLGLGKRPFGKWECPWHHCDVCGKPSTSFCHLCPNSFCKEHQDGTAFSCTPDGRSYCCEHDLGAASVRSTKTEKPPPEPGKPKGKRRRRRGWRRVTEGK

| Compound | IC50 [1] [µM] | IC50 [3] | other results |
| --- | --- | --- | --- |
| CC(C)Oc1ccc(OCCn2c(S)nc3c(N)ncnc32)cc1 | 13.8 |  |  |
| Cc1ccc(OCCn2c(S)nc3c(N)ncnc32)cc1 | 14.3 |  |  |
| CCOc1ccc(OCCn2c(S)nc3c(N)ncnc32)cc1 | 32.2 |  |  |
| Cc1cc(CN)cc(C)c1-c1ncn(C)c1-c1ccnc2cc(F)ccc12 |  |  | IC50 [2]: 13 µM |
| CC(=O)Nc1ccc(OCCn2cnc3c(N)ncnc32)cc1 |  | Not Active |  |
| N#Cc1ccccc1OCCn1cnc2c(N)ncnc21 |  | Not Active |  |
| Nc1ccc(OCCn2cnc3c(N)ncnc32)cc1 |  | Not Active |  |
| CSc1nc2c(N)ncnc2n1CCOc1ccc(C#N)cc1 |  | Not Active | IC50 [4]: Not Active |
| Nc1ncnc2c1ncn2CCOc1ccccc1Cl |  | Not Active |  |
| N#Cc1ccc(OCCn2c(Br)nc3c(N)ncnc32)cc1 |  | Not Active |  |

— ChEMBL document CHEMBL5512626, “Discovery of potent small molecule inhibitors of histone lysine methyltransferase NSDs” (Eur J Med Chem, 2024)
